Measured values published in patent US20080269526A1, “METHODS OF MAKING AN […]” (SAIC […], IP B.V., priority 2004, published 2008).

Experiment: Solubility of K Rimar in water
Conditions: 20° C. (RT)
Source text: The solubility of the potassium salt of perfluorobutanesulfonic acid, K Rimar, is described in Table 2.

Compound: O=S(=O)([O-])C(F)(F)C(F)(F)C(F)(F)C(F)(F)F.[K+] [K Rimar, Perfluorobutane sulfonate, potassium salt]
- Concentration at which K Rimar is soluble: less than 0.5 g
